Values quoted from earlier work in patent US20260199305A1, “LONG-ACTING ORAL PHARMACEUTICAL COMPRISING HYPOXIA-INDUCIBLE FACTOR PROLYL HYDROLASE INHIBITOR AND USE THEREOF” (Kind Pharmaceutical, priority 2023, published 2026).
Read-outs that look alike come from different tables or passages of the source.

Conditions: cited from earlier work

Row | SMILES | t½ (literature value) [h] | other results
1 | O=C(O)CNC(=O)C1C(=O)N(C2CCCCC2)C(=O)N(C2CCCCC2)C1=O [Daprodustat] |  | t½ (in patients with chronic kidney disease anemia, literature): ~ 7 hours
2 | O=C(O)CNC(=O)c1c(O)c2ccccc2n(OCC2CC2)c1=O [Desidustat] | 6 to 15 | 
3 | O=C(O)CNC(=O)c1c(O)cc(CCc2ccccc2)n2ncnc12 [Enarodustat] | 8.2 to 8.7 | 
4 | O=c1c(-n2ccnn2)c[nH]n1-c1cc(N2CCOCC2)ncn1 [Molidustat] | 4 to 10 | 
5 | Cc1nc(C(=O)NCC(=O)O)c(O)c2ccc(Oc3ccccc3)cc12 [Roxadustat] | 12 to 15 | 
6 | Cn1c(=O)cc(N2CCC[C@@H](N)C2)n(Cc2cc(F)ccc2C#N)c1=O [Trelagliptin] |  | elimination half-life (t½) (literature value (J Diabetes Investig 2018)): 38.44 to 54.26 h
7 | O=C(O)CNC(=O)c1ncc(-c2cccc(Cl)c2)cc1O [Vadadustat] | 4.7 to 9.1 | 
